Conditions: Liquid; for mass density: 298.15 K, 101.33 kPa, Vibrating tube method; for vapor or sublimation pressure: Closed cell (Static) method

CC(C)(C)O [2-methylpropan-2-ol]
Conditions | mass density [kg/m3] | vapor or sublimation pressure [kPa]
– | 781.04 | –
330.9 K | – | 34.9
331.1 K | – | 35.3
340.6 K | – | 54
350.6 K | – | 82.6
360.1 K | – | 121.2
369.5 K | – | 171.4
378.5 K | – | 232.1
387.7 K | – | 310.6
396.7 K | – | 406.4

CCC(C)O (configuration not stated) [butan-2-ol]
Conditions | mass density [kg/m3] | vapor or sublimation pressure [kPa]
– | 802.47 | –
332.9 K | – | 18
342.9 K | – | 29.2
352.5 K | – | 45
361.3 K | – | 65
371.1 K | – | 96
381.1 K | – | 137.6
391.9 K | – | 197.5
401.4 K | – | 266.1
412 K | – | 361.8
421.6 K | – | 471.4

CCCCCO [pentan-1-ol]
Conditions | mass density [kg/m3] | vapor or sublimation pressure [kPa]
– | 811.04 | –
333.1 K | – | 3.1
344.8 K | – | 6
354.4 K | – | 10
362.4 K | – | 14.8
371.2 K | – | 21.9
381.6 K | – | 34.1
391.5 K | – | 50.2
401.7 K | – | 73.1
411.4 K | – | 102.1
422.4 K | – | 145.2
